The results in this text go back to patent publication US8703768B2, “Nitrogen containing heteroaryl compounds” (Hoffmann-La Roche Inc., priority 2010, dated 2014).

The target of the experiment is human PDE10A (Homo sapiens (Human), UniProt Q9Y233). In words: human PDE10A full length Scintillation Proximity Assay (SPA). Type of experiment: biochemical. The settings on record: 50 nM cGMP and 50 nM [3H]-cGMP, 20 minutes at room temperature; read-out: PDE10A inhibition IC50. In short, it runs like this: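 Full-length enzyme incubated with compounds; reaction started with cGMP plus [^3H]-cGMP substrate and run 20 min at room temperature. Stopped with yttrium silicate SPA beads in 18 mM zinc sulphate, 1 h shaking, then scintillation counting; background from enzyme-free wells.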
(SPA uses beads or plates that emit light when radiolabelled molecules are held near them.)

Usually IC50 stands for the midpoint of a concentration-inhibition curve.

Chain of human PDE10A (Q9Y233 other isoform, or with tags, fused parts or gaps): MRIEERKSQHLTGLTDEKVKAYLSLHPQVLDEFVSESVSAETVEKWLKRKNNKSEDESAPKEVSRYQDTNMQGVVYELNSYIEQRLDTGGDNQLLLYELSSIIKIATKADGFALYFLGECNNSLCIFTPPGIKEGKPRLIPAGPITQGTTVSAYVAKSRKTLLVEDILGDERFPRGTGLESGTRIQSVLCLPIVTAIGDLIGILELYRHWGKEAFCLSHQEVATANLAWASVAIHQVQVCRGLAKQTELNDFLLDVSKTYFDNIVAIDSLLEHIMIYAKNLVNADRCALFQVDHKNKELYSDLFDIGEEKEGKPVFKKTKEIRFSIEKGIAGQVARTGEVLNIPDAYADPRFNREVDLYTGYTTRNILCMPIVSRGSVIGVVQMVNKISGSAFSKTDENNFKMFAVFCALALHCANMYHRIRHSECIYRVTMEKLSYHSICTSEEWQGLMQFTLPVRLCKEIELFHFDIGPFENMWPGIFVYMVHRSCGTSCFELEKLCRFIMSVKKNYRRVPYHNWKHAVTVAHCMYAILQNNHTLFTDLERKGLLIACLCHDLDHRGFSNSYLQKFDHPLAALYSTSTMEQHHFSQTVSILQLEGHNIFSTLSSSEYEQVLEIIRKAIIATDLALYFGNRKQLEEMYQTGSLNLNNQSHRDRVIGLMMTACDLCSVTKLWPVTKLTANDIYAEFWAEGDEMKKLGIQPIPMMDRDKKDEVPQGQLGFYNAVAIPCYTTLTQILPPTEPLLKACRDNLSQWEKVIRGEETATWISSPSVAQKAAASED

For `CNC(=O)c1c(Cl)cccc1NC(=O)c1nc(C2CC2)cnc1Nc1cncnc1` [Example 196, 6-Cyclopropyl-3-(pyrimidin-5-ylamino)-pyrazine-2-carboxylic acid (3-chloro-2-methylcarbamoyl-phenyl)-amide], the IC50 came to 22 nM.

On to `CCN(CC)C(=O)c1ccc(C(=O)NC)c(NC(=O)c2nc(C(C)(C)C)ncc2Nc2cncnc2)c1` [Example 94, 2-{[2-tert-Butyl-5-(pyrimidin-5-ylamino)-pyrimidine-4-carbonyl]-amino}-N^4,N^4-diethyl-N^1-methyl-terephthalamide], for which the concentration for half-maximal inhibition (IC50) was 392 nM.

As to `Cn1ncc(NC(=O)c2nc(C3CC3)cnc2Nc2cncnc2)c1C(=O)NCCF` [Example 171, 6-Cyclopropyl-3-(pyrimidin-5-ylamino)-pyrazine-2-carboxylic acid [5-(2-fluoro-ethylcarbamoyl)-1-methyl-1H-pyrazol-4-yl]-amide], the IC50 stood at 2.8 nM.

For the compound `Cn1ncc(NC(=O)c2nc(C3CC3)cnc2Nc2cncnc2)c1C(=O)N1CC(F)(F)C1` [Example 143, 6-Cyclopropyl-3-(pyrimidin-5-ylamino)-pyrazine-2-carboxylic acid [5-(3,3-difluoro-azetidine-1-carbonyl)-1-methyl-1H-pyrazol-4-yl]-amide], the IC50 is 23.3 nM.

Turning to `O=C(NC1CCOC1)c1ccncc1NC(=O)c1nc(C2CC2)cnc1Nc1cncnc1` (stereo not drawn) [Example 100, 6-Cyclopropyl-3-(pyrimidin-5-ylamino)-pyrazine-2-carboxylic acid [4-(tetrahydro-furan-3-ylcarbamoyl)-pyridin-3-yl]-amide], the IC50 came out at 2.5 nM.

Regarding `CC1CCC(C)N1C(=O)c1ccncc1NC(=O)c1nc(C2CC2)ccc1Nc1cncnc1` (stereo not drawn) [Example 59, 6-Cyclopropyl-3-(pyrimidin-5-ylamino)-pyridine-2-carboxylic acid [4-(2,5-dimethyl-pyrrolidine-1-carbonyl)-pyridin-3-yl]-amide], the IC50 was 84.4 nM.

As to `CC(C)c1ncc(Nc2cncnc2)c(C(=O)Nc2cnccc2C(=O)NCC(C)(C)O)n1` [Example 92, 2-Isopropyl-5-(pyrimidin-5-ylamino)-pyrimidine-4-carboxylic acid [4-(2-hydroxy-2-methyl-propylcarbamoyl)-pyridin-3-yl]-amide], the IC50 came out at 6.4 nM.

`CN(C(=O)c1c(NC(=O)c2nc(C3CC3)cnc2Nc2cncnc2)cnn1C)C1COC1` [Example 240, 6-Cyclopropyl-3-(pyrimidin-5-ylamino)-pyrazine-2-carboxylic acid [1-methyl-5-(methyl-oxetan-3-yl-carbamoyl)-1H-pyrazol-4-yl]-amide]: the half-inhibitory concentration (IC50) was found to be 191 nM.

For `CCCN(C)C(=O)c1c(NC(=O)c2nc(C3CC3)cnc2Nc2cncnc2)cnn1C` [Example 229, 6-Cyclopropyl-3-(pyrimidin-5-ylamino)-pyrazine-2-carboxylic acid [1-methyl-5-(methyl-propyl-carbamoyl)-1H-pyrazol-4-yl]-amide], the IC50 turned out to be 12.6 nM.

As to `CN(CCO)C(=O)c1nn(C)cc1NC(=O)c1nc(C2CC2)ccc1Nc1cncnc1` [Example 40, 6-Cyclopropyl-3-(pyrimidin-5-ylamino)-pyridine-2-carboxylic acid {3-[(2-hydroxy-ethyl)-methyl-carbamoyl]-1-methyl-1H-pyrazol-4-yl}-amide], the half-maximal inhibitory concentration (IC50) was determined as 7.5 nM.

With `Cn1ncc(NC(=O)c2nc(C3CC3)cnc2Nc2cncnc2)c1C(=O)NCC(C)(C)CO` [Example 142, 6-Cyclopropyl-3-(pyrimidin-5-ylamino)-pyrazine-2-carboxylic acid [5-(3-hydroxy-2,2-dimethyl-propylcarbamoyl)-1-methyl-1H-pyrazol-4-yl]-amide], the IC50 came out at 1.1 nM.

Take `CNC(=O)c1c(NC(=O)c2nc(C(C)C)ncc2Nc2cncc(F)c2)cnn1C` [Example 190, 5-(5-Fluoro-pyridin-3-ylamino)-2-isopropyl-pyrimidine-4-carboxylic acid (1-methyl-5-methylcarbamoyl-1H-pyrazol-4-yl)-amide]: the IC50 was 24 nM.

On to `CCc1ccc(NC(=O)c2nc(C3CC3)cnc2Nc2cncnc2)c(C(=O)NC)n1` [Example 180, 6-Cyclopropyl-3-(pyrimidin-5-ylamino)-pyrazine-2-carboxylic acid (6-ethyl-2-methylcarbamoyl-pyridin-3-yl)-amide], for which the IC50 turned out to be 5.5 nM.

Take `CNC(=O)c1ccccc1NC(=O)c1nc(C2CC2)ccc1Nc1cncnc1` [Example 29, 6-Cyclopropyl-3-(pyrimidin-5-ylamino)-pyridine-2-carboxylic acid (2-methylcarbamoyl-phenyl)-amide]: the IC50 was determined as 1.3 nM.

For the compound `CNC(=O)COc1ccc(NC(=O)c2nc(C3CC3)cnc2Nc2cncnc2)c(C(=O)NC)c1` [Example 322, 6-Cyclopropyl-3-(pyrimidin-5-ylamino)-pyrazine-2-carboxylic acid (2-methylcarbamoyl-4-methylcarbamoylmethoxy-phenyl)-amide], the IC50 was 1.7 nM.

Consider `CN(CC(C)(C)O)C(=O)c1ncncc1NC(=O)c1nc(C2CC2)cnc1Nc1cncnc1` [Example 122, 5-{[6-Cyclopropyl-3-(pyrimidin-5-ylamino)-pyrazine-2-carbonyl]-amino}-pyrimidine-4-carboxylic acid (2-hydroxy-2-methyl-propyl)-methyl-amide], for which the IC50 is 45.3 nM.

As to `Cn1ncc(NC(=O)c2nc(C3CC3)cnc2Nc2cncnc2)c1C(=O)NCCC(C)(C)O` [Example 140, 6-Cyclopropyl-3-(pyrimidin-5-ylamino)-pyrazine-2-carboxylic acid [5-(3-hydroxy-3-methyl-butylcarbamoyl)-1-methyl-1H-pyrazol-4-yl]-amide], the IC50 came out at 3 nM.

In the case of `CNC(=O)c1c(NC(=O)c2nc(C3CC3)cnc2Nc2cncnc2)cnn1CCC(F)(F)F` [Example 173, 6-Cyclopropyl-3-(pyrimidin-5-ylamino)-pyrazine-2-carboxylic acid [5-methylcarbamoyl-1-(3,3,3-trifluoro-propyl)-1H-pyrazol-4-yl]-amide], the IC50 was found to be 19.5 nM.

For the compound `O=C(Nc1cnccc1C(=O)N1CCC(O)C1)c1nc(C2CC2)ccc1Nc1cncnc1` (stereo not drawn) [Example 87], the IC50 worked out at 180 nM.

Turning to `O=C(Nc1cnccc1C(=O)N1CCC(F)(F)C1)c1nc(C2CC2)ccc1Nc1cncnc1` [Example 56, 6-Cyclopropyl-3-(pyrimidin-5-ylamino)-pyridine-2-carboxylic acid [4-(3,3-difluoro-pyrrolidine-1-carbonyl)-pyridin-3-yl]-amide], the IC50 was 65.7 nM.

In the case of `Cc1ccc(NC(=O)c2nc(C3CC3)cnc2Nc2cncnc2)c(C(=O)N(C)C)n1` [Example 268, 6-Cyclopropyl-3-(pyrimidin-5-ylamino)-pyrazine-2-carboxylic acid (2-dimethylcarbamoyl-6-methyl-pyridin-3-yl)-amide], the IC50 stood at 14.9 nM.

`CC(C)(O)CNC(=O)c1cccc(F)c1NC(=O)c1nc(C2CC2)cnc1Nc1cncnc1` [Example 293, 6-Cyclopropyl-3-(pyrimidin-5-ylamino)-pyrazine-2-carboxylic acid [2-fluoro-6-(2-hydroxy-2-methyl-propylcarbamoyl)-phenyl]-amide]: the IC50 was 6 nM.

In the case of `Cn1cc(NC(=O)c2nc(C3CC3)ccc2Nc2cncnc2)c(C(=O)N2CCC(C)(C)C2)n1` [Example 32, 6-Cyclopropyl-3-(pyrimidin-5-ylamino)-pyridine-2-carboxylic acid [3-(3,3-dimethyl-pyrrolidine-1-carbonyl)-1-methyl-1H-pyrazol-4-yl]-amide], the IC50 worked out at 7.3 nM.

As to `CNC(=O)c1c(NC(=O)c2nc(C3CCOC3)cnc2Nc2cncnc2)cnn1C` (stereo not drawn) [Example 160, 3-(Pyrimidin-5-ylamino)-6-(tetrahydro-furan-3-yl)-pyrazine-2-carboxylic acid (1-methyl-5-methylcarbamoyl-1H-pyrazol-4-yl)-amide], the IC50 is 2.9 nM.

`CC(C)OCCNC(=O)c1ccncc1NC(=O)c1nc(C2CC2)cnc1Nc1cncnc1` [Example 99, 6-Cyclopropyl-3-(pyrimidin-5-ylamino)-pyrazine-2-carboxylic acid [4-(2-isopropoxy-ethylcarbamoyl)-pyridin-3-yl]-amide]: the IC50 is 2.6 nM.

`CNC(=O)c1cc(OCC(C)(C)O)ccc1NC(=O)c1nc(C2CC2)cnc1Nc1cncnc1` [Example 338, 6-Cyclopropyl-3-(pyrimidin-5-ylamino)-pyrazine-2-carboxylic acid [4-(2-hydroxy-2-methyl-propoxy)-2-methylcarbamoyl-phenyl]-amide]: the IC50 amounted to 2.1 nM.

On to `CC(C)(O)CNC(=O)c1cc(Cl)ncc1NC(=O)c1nc(C2CC2)cnc1Nc1cncnc1` [Example 260, 6-Cyclopropyl-3-(pyrimidin-5-ylamino)-pyrazine-2-carboxylic acid [6-chloro-4-(2-hydroxy-2-methyl-propylcarbamoyl)-pyridin-3-yl]-amide], for which the half-maximal inhibitory concentration (IC50) is 1.6 nM.

Turning to `CCCN(CCC)C(=O)c1c(NC(=O)c2nc(C3CC3)cnc2Nc2cncnc2)cnn1C` [Example 222, 6-Cyclopropyl-3-(pyrimidin-5-ylamino)-pyrazine-2-carboxylic acid (5-dipropylcarbamoyl-1-methyl-1H-pyrazol-4-yl)-amide], the IC50 turned out to be 42.5 nM.

Take `Cn1ncc(NC(=O)c2nc(C3CC3)cnc2Nc2cccnc2)c1C(=O)N1CCC1` [Example 234, 6-Cyclopropyl-3-(pyridin-3-ylamino)-pyrazine-2-carboxylic acid [5-(azetidine-1-carbonyl)-1-methyl-1H-pyrazol-4-yl]-amide]: the IC50 turned out to be 77.3 nM.

Consider `COC1CCN(C(=O)c2nn(C)cc2NC(=O)c2nc(C3CC3)ccc2Nc2cncnc2)C1` (stereo not drawn) [Example 48, 6-Cyclopropyl-3-(pyrimidin-5-ylamino)-pyridine-2-carboxylic acid [3-(3-methoxy-pyrrolidine-1-carbonyl)-1-methyl-1H-pyrazol-4-yl]-amide], for which the IC50 stood at 8.3 nM.
